Source: US12428424B2, “Estrogen receptor-modulating compounds” (RADIUS PHARMACEUTICALS, INC., priority 2019, dated 2025)

Each molecule was assayed on E2-induced increase in uterine weight (assay: Immature rat uterine assay). Conditions: immature rats, oral dose of 3 mg/kg in combination with E2 (0.01 mg/kg), once daily for three days.
Assay type: in vivo, Sprague-Dawley rat
Description: Immature Rat Uterine Assay
Sprague-Dawley rat pups were weaned at 19 days of age, randomized into groups (n=6), and administered vehicle (aqueous 20% HPBCD, 10% PEG400 in H2O), E2 (0.01 mg/kg), test compounds (0.1 mg/kg-3 mg/kg) in combination with E2 (0.01 mg/kg), either by subcutaneous injection or by oral gavage, once daily for three consecutive days. Twenty-four hours after the final dose, all animals were killed by carbon dioxide inhalation. Body weights and wet uterine weights were recorded for each animal. GraphPadPrism 6.0 software was used to analyze data.

SMILES | wet uterine weight
Cc1ccccc1-c1c(F)c2c3cn[nH]c3ccc2n1Cc1ccc(CCNCCCF)cc1F [Compound D-105, 3-fluoro-N-(3-fluoro-4-((8-fluoro-7-(o-tolyl)pyrrolo[3,2-e]indazol-6(3H)-yl)methyl)phenethyl)propan-1-amine] | suppressed wet uterine weight to baseline

These molecules were tested on MCF-7 cells (assay: MCF-7 Proliferation Inhibition Assay (E2-induced proliferation, CellTiterGlo)). Conditions: Homo sapiens, MCF7, 168 h, 10 pM dose of E2, 7 days incubation.
Assay type: cell-based
Description: Proliferation Assay in MCF-7 and T47 D Cells
MCF-7 and T47D cells were stripped for 3 days in phenol red-free RPMI1640 media containing 10% charcoal-stripped fetal bovine serum (CS-FBS) and 1% Penicillin/streptomycin (P/S). Cells (volume of 90 μl/well) were seeded in 96 well plates at a density of 2500 cells/well for MCF-7 cells and 1500 cells/well for T47D cells. On the following day, plates were treated with the test compounds (10× concentration in media, volume of 10 μl/well added) both in the absence and in the presence of two doses of E2 (10 pM and 1 nM). The cells were incubated with test compounds for 7 days. The viability of the cells was assessed using CellTiterGlo (Promega, Cat #G7573) according to the manufacturer's instructions. Growth inhibition curves and IC50 values were calculated using the GraphPadPrism 6.0 software. Data values shown in Table 1 were obtained using the 10 pM dose of E2.

SMILES | IC50
Cc1ccccc1-c1c(F)c2c3cn[nH]c3ccc2n1Cc1c(F)cc(CCNCCCF)cc1F [Compound D-106, N-(3,5-difluoro-4-((8-fluoro-7-(o-tolyl)pyrrolo[3,2-e]indazol-6(3H)-yl)methyl)phenethyl)-3-fluoropropan-1-amine] | < 1 nM
Cc1ccccc1-c1c(Cl)c2c3cn[nH]c3ccc2n1Cc1ccc(CCNCCCF)cc1 [Compound D-109, N-(4-((8-Chloro-7-(o-tolyl)pyrrolo[3,2-e]indazol-6(3H)-yl)methyl)phenethyl)-3-fluoropropan-1-amine] | < 1 nM
Cc1ccccc1-c1c(F)c2c3c(F)n[nH]c3ccc2n1Cc1ccc(CCNCCCF)cc1 [Compound D-107, N-(4-((1,8-difluoro-7-(o-tolyl)pyrrolo[3,2-e]indazol-6(3H)-yl)methyl)phenethyl)-3-fluoropropan-1-amine] | < 1 nM
Cc1ccccc1-c1cc2c3c(F)n[nH]c3ccc2n1Cc1ccc(CCNCCCF)cc1F [Compound D-108, 3-Fluoro-N-(3-fluoro-4-((1-fluoro-7-(o-tolyl)pyrrolo[3,2-e]indazol-6(3H)-yl)methyl)phenethyl)propan-1-amine] | < 1 nM
Cc1ccccc1-c1c(F)c2c3cn[nH]c3ccc2n1Cc1ccc(CCNCCCF)cc1F [Compound D-105, 3-fluoro-N-(3-fluoro-4-((8-fluoro-7-(o-tolyl)pyrrolo[3,2-e]indazol-6(3H)-yl)methyl)phenethyl)propan-1-amine] | < 1 nM
